According to patent US20250236838A1, “E. COLI NISSLE STRAIN WITH IMPROVED TRANSFORMATION EFFICIENCY” (priority 2024, published 2025):
Several values for one entry are separate records, joined by “and”; a condition that tells them apart may be missing. Equal entries are not always repeated.

Experiment: Hydrophobicity, dodecane partitioning assay
Assay type: physicochemical, E. coli Nissle
Procedure: Hydrophobicity was measured using a standard partitioning assay. Fresh cultures of both strains were grown till log phase (OD600=0.7). The OD was found using Thermo Fischer's NanoDrop^C. The OD546 of the cell (OD1) was adjusted to 0.3 using 10 mM CaCO3 solution. 4 ml of the cell suspension was transferred to individual test tubes having 1 ml of dodecane and vortexed at 2500 rpm for 10 minutes to homogenize the phases. The phases were allowed to separate for 15 minutes. The OD546 of the aqueous phase (OD2) was measured.
The mean percentage of partitioning was calculated using triplicate samples. Partitioning of the bacteria suspension is calculated using Equation (3).

In the case of E. coli Nissle 1917 [Wild Type], the OD2 (OD546 of the aqueous phase after dodecane partitioning) was 0.14 and 0.17, the OD1 (OD546 of the cell suspension before partitioning) was 0.29 and 0.27 and the membrane hydrophobicity (conclusion from phase partitioning) was “hydrophilic”. For the same substance, the “Average Partitioning” value (mean of triplicate samples) was 45.636% and the “Percentage of Partitioning” value (single samples of triplicate) was 51.724% and 37.037% and 48.148%.
